Reference: patent publication US11401243B2, “Quinoline derived small molecule inhibitors of nicotinamide N-methyltransferase (NNMT) and uses thereof” (priority 2017, dated 2022)
Read-outs that look alike come from different tables or passages of the source. One block for each compound: values may come before it.

Columns and labels:
human NNMT (mt-hNNMT) = molecular target: T1, human NNMT (mt-hNNMT) (Homo sapiens, UniProt P40261, E101A/E103A/K100A); experiment: NNMT activity assay (HPLC-UV detection of MNA), NNMT IC50 curves; conditions: for IC50: NI = no observable inhibition
T1 sequence (P40261 1-261 K100A/E101A/E103A limits assumed): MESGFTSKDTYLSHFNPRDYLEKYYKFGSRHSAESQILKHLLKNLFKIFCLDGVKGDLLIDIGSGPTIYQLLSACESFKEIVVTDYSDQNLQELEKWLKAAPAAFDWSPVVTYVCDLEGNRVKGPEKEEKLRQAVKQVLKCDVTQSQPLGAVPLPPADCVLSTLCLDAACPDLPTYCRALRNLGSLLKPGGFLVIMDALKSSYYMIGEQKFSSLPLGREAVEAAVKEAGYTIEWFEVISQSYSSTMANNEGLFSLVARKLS

[1] = Parallel artificial membrane permeability assay (PAMPA); assay type: in vitro ADME; conditions: for Papp at 4 h, 400 μM: read-out: Flux; for Permeability Classification (passive transport): BCS classification
Protocol: Samples were tested in triplicates in three separate experiments.

[2] = test system: NNMT activity in 3T3-L1 pre-adipocytes and differentiated adipocytes; experiment: Quantitative measurement of NNMT reaction product 1-MNA in cultured cells (LC/MS/MS); assay type: cell-based; conditions: 10 μM, 24 h
Protocol: Differentiation of 3T3-L1 pre-adipocytes. […] Briefly, standard culture media was supplemented with scheduled addition of adipogenic agents [3-isobutyl-1methyl xanthine (IBMX), Sigma Aldrich; MO, USA), dexamethasone (Sigma Aldrich; MO, USA), insulin (Gibco Life Technologies Inc.; Grand Island, N.Y., USA)] over 10 days to promote differentiation of 3T3-L1 fibroblasts into adipocytes; a combination of 1 mM IBMX, 1 μM dexamethasone, and 10 μg/ml of insulin in media were added to fully confluent 3T3-L1 fibroblasts for three days (days 0-3) to initiate differentiation. At day 3, the media was replaced with culture media supplemented with insulin (10 μg/ml). After day 6, cells were maintained in culture media until described experiments were begun (days 8-10).
Cellular 1-MNA concentrations were determined using an ultra-sensitive high-resolution AB Sciex 6500 Q-trap mass spectrometer coupled to an Agilent 1260 ultra-high pressure liquid chromatography (LC/MS/MS) system. Using multiple reaction monitoring (MRM) positive ion mode, the 1-MNA NNMT reaction product was quantified from peak area ratios using AB Sciex Analyst and MultiQuant 2.1 software and the parent precursor and Q3 masses set to m/z 137.1 and 94.1, respectively. Fragment ions at m/z of 92.1 and 77.9 were additionally used for the detection and confirmation of 1-MNA, respectively. […]. To determine the effect of NNMT inhibitor on NNMT activity in the pre-adipocytes and differentiated adipocytes (8×10^4 cells/well seeded prior to beginning differentiation), cells were treated with 30 μM inhibitor for 24 h. Similarly, to compare the relative effects of multiple NNMT inhibitors on NNMT activity in cultured adipocytes, differentiated adipocytes in 6-well plates were treated with 10 μM test compound for 24 h. Following treatment, media was replaced with 80% (v/v) methanol (cooled to −80° C.) containing 500 nmol 6-chloronicotinamide (6-CN) as an internal standard (IS) to extract cellular metabolites. Adherent cells were scrapped, then centrifuged at 4° C. and 13000 g for 15 min, and the resulting supernatants processed using established protocols. […]. Data were subsequently normalized to the IS peak area and transformed as % control values for cross-sample comparisons. […] Choice of inhibitor concentrations and time period was chosen based on the results from the MTT studies.

[3] = Bi-directional permeability assay with Caco-2 cells; conditions: human
Caco-2 cells = experiment: as above; conditions: Caco-2
[4] = test system: 3T3-L1 pre-adipocytes cells; experiment: MTT cell viability assay; assay type: cell-based; conditions: 3T3-L1 pre-adipocytes, 24 h
Protocol: Cells were treated for 24 h with 0.1-600 μM NNMT inhibitors in cell culture media. A 24 h time point was chosen based on a previous report of using this time period for transfecting or treating 3T3-L1 cells with NNMT anti-sense oligonucleotides or a small molecule NNMT product inhibitor (1-MNA), respectively, for phenotypic measures. MTT (3-(4,5-dimethylthiazol-2-yl)-2,5-diphenyltetrazolium bromide) (ATCC; Manassas, Va., USA) was added to each well and assayed according to the manufacturer's instructions. Absorbance corresponding to the amount of formazan dye produced by treated cells was normalized to that produced by control (untreated) cells to calculate % viable cells in the treated samples.

[5] = molecular target: recombinant human NAMPT enzyme (Homo sapiens, UniProt P43490); experiment: NAMPT activity assay (fluorometric); assay type: biochemical; conditions: concentrations between 30 and 600 μM (data not shown)
Chain of recombinant human NAMPT enzyme (P43490 whole entry): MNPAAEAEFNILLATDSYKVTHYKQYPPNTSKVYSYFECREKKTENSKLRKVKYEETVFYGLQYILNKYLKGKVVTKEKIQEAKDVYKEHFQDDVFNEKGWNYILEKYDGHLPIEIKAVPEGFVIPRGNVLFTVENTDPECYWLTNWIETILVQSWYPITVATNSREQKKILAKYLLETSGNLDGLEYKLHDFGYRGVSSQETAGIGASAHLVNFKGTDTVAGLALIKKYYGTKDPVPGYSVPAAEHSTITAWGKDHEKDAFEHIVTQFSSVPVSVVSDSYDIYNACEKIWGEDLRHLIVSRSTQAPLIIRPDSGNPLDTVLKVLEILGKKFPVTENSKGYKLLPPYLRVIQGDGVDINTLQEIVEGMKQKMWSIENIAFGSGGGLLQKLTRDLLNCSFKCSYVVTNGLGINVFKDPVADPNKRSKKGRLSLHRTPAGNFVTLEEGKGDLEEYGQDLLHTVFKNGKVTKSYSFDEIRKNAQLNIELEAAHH

[6] = molecular target: recombinant human PRMT3 enzyme (Homo sapiens, UniProt O60678); experiment: PRMT3 activity assay (radiometric); assay type: biochemical; conditions: NC: not calculable (no significant inhibition); read-out: IC50, Protein arginine methyltransferase 3
Chain of recombinant human PRMT3 enzyme (O60678 whole entry): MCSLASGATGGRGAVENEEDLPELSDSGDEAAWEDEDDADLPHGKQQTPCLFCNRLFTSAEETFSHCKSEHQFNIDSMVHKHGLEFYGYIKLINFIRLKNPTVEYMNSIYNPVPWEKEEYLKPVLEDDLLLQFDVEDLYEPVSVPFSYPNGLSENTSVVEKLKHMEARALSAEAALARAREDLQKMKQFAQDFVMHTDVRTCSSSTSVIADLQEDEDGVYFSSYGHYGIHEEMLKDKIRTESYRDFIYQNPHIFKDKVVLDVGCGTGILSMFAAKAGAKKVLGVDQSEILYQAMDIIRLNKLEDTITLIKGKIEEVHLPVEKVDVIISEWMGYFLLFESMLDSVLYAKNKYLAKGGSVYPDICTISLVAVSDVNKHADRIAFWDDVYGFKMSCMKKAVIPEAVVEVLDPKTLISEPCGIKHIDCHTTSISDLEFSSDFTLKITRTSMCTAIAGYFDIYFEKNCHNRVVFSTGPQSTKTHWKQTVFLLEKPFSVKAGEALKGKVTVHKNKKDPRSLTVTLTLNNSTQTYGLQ
Source text: Test compounds were screened in biochemical assays for activity against three structurally similar methyltransferases, including catechol-O-methyltransferase (COMT), DNA (cytosine-5)-methyltransferase 1 (DNMT1), and protein arginine methyltransferase 3 (PRMT3). Additional biochemical assays were used to test the ability of compounds to inhibit nicotinamide phosphoribosyl transferase (NAMPT) and NAD+-dependent protein deacetylase sirtuin 1 (SIRT1), two enzymes in the NAD+ biosynthesis/salvage pathway. All assays were performed by Reaction Biology Corporation (RBC; Malvern, Pa., USA) and complete assay details are noted below. For each test compound, IC50 values were calculated from dose-response curves established with 10 concentrations of a half-log dilution series. For each assay, established enzyme specific inhibitors were included as positive controls for enzyme function and assay reproducibility. IC50 values were determined by non-linear least-squares fitting of a 4-parameter dose-response curve to collected data points (Graphpad Prism 7.0; La Jolla, Calif., USA).
PRMT3 activity assay. […] The analogues, 1,8-diMQ and 5-amino-1MQ were tested at concentrations from 200 μM-10 nM and 600 μM-10 nM, respectively. Reactions were performed with 5 μM histone H3 (histone L-arginine) substrate, 1 μM radiolabeled S-adenosyl-L-[methyl-3H]methionine (SAM) co-substrate, and recombinant human PRMT3 enzyme. Activity was monitored via quantification of radiolabeled reaction product histone [methyl-3H]-L-arginine.

[7] = NNMT Inhibition IC50, mean ± SD of duplicate or triplicate measurements
[8] = 400 μM in PBS, 4 h, room temperature

SMILES: CC(C(=O)c1ccc(Br)cc1)[n+]1cccc2ccccc21 (stereo not drawn) [1v]
IC50 (human NNMT (mt-hNNMT); [7]): > 1000 µM

SMILES: O=C1C2CC=C(Cl)CC2C(=O)N1CCC[n+]1cccc2ccccc21 (stereo not drawn) [1w]
IC50 (human NNMT (mt-hNNMT); [7]): > 1000 µM

SMILES: OC(CBr)C[n+]1cc(Br)cc2ccccc21 (stereo not drawn) [2e]
IC50 (human NNMT (mt-hNNMT); [7]): > 1000 µM

SMILES: CC(=O)C[n+]1cccc2cc(Cl)ccc21 [2g]
IC50 (human NNMT (mt-hNNMT); [7]): > 1000 µM

SMILES: CC(=O)C[n+]1cccc2cc(O)ccc21 [2h]
IC50 (human NNMT (mt-hNNMT); [7]): > 1000 µM

SMILES: Cc1ccc2c(ccc[n+]2CC(=O)c2ccccc2)c1 [2i]
IC50 (human NNMT (mt-hNNMT); read-out: NNMT Inhibition IC50, mean ± SD of duplicate or triplicate measurements): > 1000 µM

SMILES: C[n+]1cc(N)cc2cc(F)ccc21 [2j, 3-amino-6-fluoro-1-methylquinolin-1-ium]
Papp at 4 h, 400 μM [1, 8]: 1.08 ×10⁻⁶ cm/s | Permeability Classification (passive transport) [1]: Moderate permeability | inhibitory activity against NNMT (in words) (human NNMT (mt-hNNMT)): inhibitory activity | IC50 (human NNMT (mt-hNNMT); [7]): 1.2 ± 0.2 µM | 1-MNA levels in differentiated adipocytes relative to control [2]: significantly decreased

SMILES: Cc1ccc(C(F)(F)F)c2ccc[n+](C)c12 [2k]
inhibitory activity against NNMT (in words) (human NNMT (mt-hNNMT)): inhibitory activity | IC50 (human NNMT (mt-hNNMT); [7]): 87 ± 26.1 µM

SMILES: C[n+]1ccc(Cl)c2cccc(C(F)(F)F)c21.O=S(=O)([O-])C(F)(F)F [2l, 4-chloro-1-methyl-8-(trifluoromethyl)quinolin-1-ium Trifluoromethanesulfonate]
inhibitory activity against NNMT (in words) (human NNMT (mt-hNNMT)): inhibitory activity | IC50 (human NNMT (mt-hNNMT); [7]): > 1000 µM

SMILES: C[n+]1c(N)c(N)cc2ccccc21 [2m]
efflux ratio at 2 h, 10 μM ([3]; Caco-2): 4.03 | Papp A→B at 2 h, 10 μM ([3]; Caco-2, pH 7.4): 5.27 ×10⁻⁶ cm/s | Papp B→A at 2 h, 10 μM ([3]; Caco-2, pH 7.4): 21.2 ×10⁻⁶ cm/s | Classification (active transport / efflux) (Caco-2 cells; listed as 2,3-diamine-1MQ): Moderate permeability | Classification (active transport / efflux) (Caco-2 cells; listed as 2,3-diamino-1MQ): moderate bi-directional active transport with moderate efflux ratio | cell viability ([4]; 300 μM): did not impact cell viability | cytotoxicity ([4]; 600 μM (highest concentration tested)): ~40% | Papp at 4 h, 400 μM [1, 8]: 3.9 ×10⁻⁶ cm/s | Permeability Classification (passive transport) ([1]; listed as 2,3-diamine-1MQ): High permeability | Permeability Classification (passive transport) ([1]; listed as 2,3-diamino-1MQ): high passive permeability | inhibitory activity against NNMT (in words) (human NNMT (mt-hNNMT)): inhibitory activity | IC50 (human NNMT (mt-hNNMT); [7]): 2.8 ± 0.5 µM | 1-MNA levels in differentiated adipocytes relative to control [2]: significantly decreased

SMILES: C[n+]1cccc2c(N)c(F)ccc21 [5-amino-6-fluoro-1MQ]
inhibition of NAMPT (in words) [5]: no inhibition

SMILES: c1ccc2ncccc2c1 [Quinoline]
Flux [1, 8]: 3.39e-05 cm/s | Permeability Classification (passive transport) [1]: High permeability

SMILES: CNC(=C[N+](=O)[O-])NCCSCc1ccc(CN(C)C)o1 [Ranitidine, reference compound]
Classification (active transport / efflux) (Caco-2 cells): Low permeability

SMILES: Nc1ncnc2c1ncn2[C@@H]1O[C@H](CSCC[C@H](N)C(=O)O)[C@@H](O)[C@H]1O [SAH, S-adenosylhomocysteine, reference compound]
IC50 [6]: 6.6 ± 1.2 µM

Other lines, results leading:

IC50 (human NNMT (mt-hNNMT); [7]): 8.7 ± 2.6 µM
SMILES: CC[n+]1ccc(C)c2ccccc21 [2a]

IC50 (human NNMT (mt-hNNMT); [7]): 3.1 ± 1.4 µM
SMILES: CC[n+]1cccc2cccc(C)c21 [2b]

IC50 (human NNMT (mt-hNNMT); [7]): 33.5 ± 9.9 µM
SMILES: Cc1cc[n+](CCO)c2ccccc12 [2c]

IC50 (human NNMT (mt-hNNMT); [7]): 40.6 ± 13 µM
SMILES: CC(=O)C[n+]1cccc2cccc(O)c21 [2d]

IC50 (human NNMT (mt-hNNMT); [7]): > 1000 µM
SMILES: CCC[n+]1cccc2cc(C)ccc21 [2f]

IC50 (human NNMT (mt-hNNMT); [7]): > 1000 µM
SMILES: Cc1ccc2c(ccc(C)[n+]2C)c1 [2n]
